One molecule from BindingDB's records for doi:10.1016/j.bmcl.2016.03.041 (Eli Lilly, 2016) can be followed below.

The target of test [1] is T1, Prostaglandin E2 receptor EP3 subtype (Homo sapiens, UniProt P43115).
T1 sequence (P43115 whole entry): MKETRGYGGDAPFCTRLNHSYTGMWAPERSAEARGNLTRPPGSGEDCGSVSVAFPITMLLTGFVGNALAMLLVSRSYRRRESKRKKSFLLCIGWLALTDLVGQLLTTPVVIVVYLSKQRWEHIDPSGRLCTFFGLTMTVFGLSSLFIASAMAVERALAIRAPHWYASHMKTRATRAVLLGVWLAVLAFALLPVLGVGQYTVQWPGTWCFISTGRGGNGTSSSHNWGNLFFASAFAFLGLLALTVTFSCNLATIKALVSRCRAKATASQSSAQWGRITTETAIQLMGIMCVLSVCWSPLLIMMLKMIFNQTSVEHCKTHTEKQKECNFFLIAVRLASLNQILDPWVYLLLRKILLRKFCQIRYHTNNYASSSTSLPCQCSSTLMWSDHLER
The test is described as follows: Binding affinity to human EP3.

In test [2] the target is Prostaglandin E2 receptor EP2 subtype (Homo sapiens, UniProt P43116). Put plainly: Binding affinity to human EP2.
For test [3], the target named is T2, Prostaglandin E2 receptor EP1 subtype (Homo sapiens, UniProt P34995).
T2 sequence (P34995 whole entry): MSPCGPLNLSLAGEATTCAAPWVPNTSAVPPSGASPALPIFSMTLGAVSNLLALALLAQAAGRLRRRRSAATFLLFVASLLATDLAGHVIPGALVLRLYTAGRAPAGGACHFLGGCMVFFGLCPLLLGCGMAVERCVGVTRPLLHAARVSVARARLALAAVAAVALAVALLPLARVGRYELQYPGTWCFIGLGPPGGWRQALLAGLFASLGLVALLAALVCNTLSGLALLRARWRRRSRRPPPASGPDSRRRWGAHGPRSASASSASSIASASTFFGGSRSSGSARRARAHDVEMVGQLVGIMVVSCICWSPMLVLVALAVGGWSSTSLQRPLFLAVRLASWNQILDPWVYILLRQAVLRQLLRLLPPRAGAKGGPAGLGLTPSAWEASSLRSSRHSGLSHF
The test is described as follows: Binding affinity to human EP1.

Sequence of Prostaglandin E2 receptor EP2 subtype (P43116 whole entry): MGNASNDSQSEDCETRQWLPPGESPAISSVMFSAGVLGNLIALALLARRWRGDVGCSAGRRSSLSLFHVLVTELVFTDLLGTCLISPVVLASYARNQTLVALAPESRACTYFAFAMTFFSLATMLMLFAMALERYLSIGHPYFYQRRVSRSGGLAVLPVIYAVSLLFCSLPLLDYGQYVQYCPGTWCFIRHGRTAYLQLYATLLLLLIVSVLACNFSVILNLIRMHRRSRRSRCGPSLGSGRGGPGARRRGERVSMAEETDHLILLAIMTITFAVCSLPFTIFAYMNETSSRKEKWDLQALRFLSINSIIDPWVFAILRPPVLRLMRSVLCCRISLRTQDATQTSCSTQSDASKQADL

As to `Cc1ccc(N2CCC(O)CC2)nc1C(=O)Nc1c(C)cc(C(=O)O)cc1C` [US8933099, 1], the Ki in test [1] was more than 14 µM; in test [2], more than 18.9 µM; in test [3] it was more than 17.5 µM.

In general, Ki refers to the equilibrium dissociation constant of an inhibitor or competing ligand from its target. A higher Ki goes with lower affinity.
